Data as given in publication PMC5622171 (Nature Communications, 2017).

Key:
hPXR = target: T1, hPXR (Homo sapiens, UniProt O75469); test: hPXR transactivation assay using transient transfection in LS180 cells; type: cell-based; parameters: expressed in transfected cells; details: SPA70 10 μM, SJB7 4 μM
T1 sequence (O75469 1-434): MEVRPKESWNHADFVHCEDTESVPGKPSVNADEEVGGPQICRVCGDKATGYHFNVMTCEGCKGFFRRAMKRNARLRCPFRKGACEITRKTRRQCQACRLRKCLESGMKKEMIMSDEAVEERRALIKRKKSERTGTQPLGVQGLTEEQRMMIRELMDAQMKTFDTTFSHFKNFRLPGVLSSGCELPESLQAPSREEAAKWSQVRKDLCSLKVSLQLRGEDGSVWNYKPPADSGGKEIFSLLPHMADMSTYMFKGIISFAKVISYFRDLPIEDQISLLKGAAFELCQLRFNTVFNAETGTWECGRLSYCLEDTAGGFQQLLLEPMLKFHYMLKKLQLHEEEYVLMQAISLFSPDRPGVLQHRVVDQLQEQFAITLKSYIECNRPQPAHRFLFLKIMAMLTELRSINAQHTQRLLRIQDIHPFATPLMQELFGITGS
Procedure: The hPXR transactivation assay using transient transfection (agonist and antagonist modes) were performed as described previously. Briefly, LS180 cells were co-transfected with pGL3-CYP3A4-luc (CYP3A4-luciferase reporter) and pRL-TK (as a transfection control), together with pcDNA3, pcDNA3-hPXR, pcDNA3-hPXRM425A, or pcDNA3-hPXRF429A, by using FuGENE 6 (Roche). The pcDNA3-hPXR mutants (pcDNA3-hPXRM425A and pcDNA3-hPXRF429A) were obtained from Codex BioSolutions, Inc. (Gaithersburg, MD). Mutations were verified through nucleotide sequencing, using primers shown in Supplementary Table 3.

MDR1 in LS174T cells = test: MDR1 protein levels (western blot); type: cell-based, human; details: 10 μM SPA70, 1.6 μM RIF, 72 h
Procedure: (§1) Cells were rinsed once with cold PBS then lysed in RIPA lysis buffer (Thermo Fisher Scientific) containing protease inhibitor (Roche). Mouse liver samples were homogenized in 500 μl of cold RIPA lysis buffer in a Bullet Blender Blue homogenizer (Next Advance, Averill Park, NY). Then, 25 μg of total protein lysates were loaded onto NuPAGE 4%–12% Bis-Tris gels (Invitrogen) with NuPAGE MES SDS running buffer (Invitrogen). The proteins were transferred from the gel to a nitrocellulose membrane by using the iBlot gel-transfer system (Invitrogen). The membrane was then blocked for 1 h with Odyssey Blocking Buffer (LI-COR Biosciences, Lincoln, NE) and probed with mouse monoclonal antibodies against CYP3A4 (K03; stock concentration: 2.5 mg ml^−1, diluted 1:5000)[51], MDR1 (D-11; Cat. No. sc-55510, Santa Cruz Biotechnology, Santa Cruz, CA; stock concentration: 0.2 mg ml^−1, diluted 1:1500), hPXR (H-11; Cat. No. sc-48340, Santa Cruz Biotechnology; stock concentration: 0.2 mg ml^−1, diluted 1:400), mouse Cyp3a (Cat. No. MAB10041, Millipore, Temecula, CA; Lot No. 1957980, diluted 1:1000), or β-actin (Cat. No. A5441, Sigma; Lot No. 043M4840V, diluted 1:5000). […] The relative intensity of each protein band was then determined by normalizing the intensity of each protein band to that of actin. […]

MDR1 in LS180 cells = test: MDR1 protein levels (western blot); type: cell-based, human; details: 10 μM SPA70, 1.6 μM RIF, 72 h
Procedure: as §1

CYP3A4 promoter = test: hPXR-CYP3A4-luc reporter mice (hydrodynamic injection), bioluminescence imaging; type: in vivo, mouse; details: transient transgenic mice, SPA70 150 mg kg−1, RIF 10 mg kg−1
Procedure: For the hydrodynamic injections, treatment, and in vivo imaging, in vivo delivery of the CYP3A4-luc reporter gene and the hPXR gene into mouse liver was performed using the hydrodynamic injection method described previously, [53], [54]. Briefly, by a rapid (5–10 s) tail-vein injection, each mouse received 25 μg of linearized CYP3A4-luc plasmid DNA with linearized hPXR plasmid DNA in sterile saline in a volume equal to 10% of its body weight. Imaging for luciferase activity was performed 2–8 weeks after somatic gene transfer (the bioluminescence was stable in the mice during the 2–8 weeks period). Fifteen mice were given i.p. injections of VivoGlo luciferin (Promega) (150 mg kg^−1 of body weight), anesthetized with 2.5% isoflurane, and imaged 10 min later in a Xenogen IVIS 200 system (Xenogen) to obtain a basal image. […] The mice were imaged 10 h after the last treatment in each round. The Living Image 3.2 software (Xenogen) was used to analyze the total photon flux of uniform regions of interest drawn around the liver. The CYP3A4-luc reporter activity (expressed as induction rate) was determined by using the total photon flux from the same mouse before and after treatment: induction rate = total photon flux (after treatment)/total photon flux (before treatment).

Compound: COc1ccc(OC)c(-n2nnc(S(=O)(=O)c3ccc(C(C)(C)C)cc3)c2C)c1 [SPA70]
- Effect on activation of hPXR by SJB7 (hPXR): effectively block the activation of hPXR
- Effect on rifampicin induction of MDR1 (MDR1 in LS174T cells): able to block rifampicin induction of MDR1
- Effect on rifampicin induction of MDR1 (MDR1 in LS180 cells): able to block rifampicin induction of MDR1
- Effect on rifampicin-induced activation of the CYP3A4 promoter (CYP3A4 promoter): effectively blocked the rifampicin-induced activation of the CYP3A4 promoter
